Measurements taken from US11708344B2, “Flavone derivatives for the treatment and prophylaxis of hepatitis B virus disease” (Hoffmann-La Roche Inc., priority 2018, dated 2023).

Tests used:
[1] = system: HBeAg (surrogate marker for cccDNA) in HepDES19 cells; experiment: Engineered HepDES19 primary screen assay (HBeAg ELISA); format: cell-based, HBV; conditions: Hepatitis B virus, HepDES19, 120 h, read-out: IC50 (HBeAg level, HepDES19 primary screen assay), HepDES19 cells, 5 days compound incubation, HBeAg ELISA
Procedure, shortened: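 HepDES19 cells were induced by Tet withdrawal for 8 days, then treated with half-log compound dilutions (1% DMSO final) for 5 days at 37 °C. HBeAg was measured by ELISA as the cccDNA surrogate, viability by CCK-8, and IC50 from a 4-parameter logistic fit.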

[2] = Human microsome stability assay; format: in vitro ADME; conditions: human liver microsomes, 1 μM test compound, 0.5 mg/mL microsomal protein, 37° C., pH 7.4, 0-30 minutes
Procedure, shortened: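 Compound (1 μM) incubated at 37 °C with human liver microsomes (0.5 mg/mL protein) in 100 mM potassium phosphate, pH 7.4, after 10 min preincubation; started with NADPH regenerating system. Sampled at 0–30 min, quenched with cold ACN; remaining parent quantified by LC-MS/MS, with no-NADPH controls.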

## O=c1cc(-c2c(F)cc(Br)cc2OCCO[C@H]2C[C@@H](C(=O)O)C2)oc2c(Cl)cccc12 [Example C071, Cis-3-[2-[5-bromo-2-(8-chloro-4-oxo-chromen-2-yl)-3-fluoro-phenoxy]ethoxy]cyclobutanecarboxylic acid]
[1]
  IC50: 10.8 µM
[2]
  Clearance of Human microsome: 6.15 mL/min/kg

## COc1cc(OCCO[C@H]2C[C@@H](C(=O)O)C2)c(-c2cc(=O)c3cccc(Cl)c3o2)cc1OC [Example C072, Cis-3-[2-[2-(8-chloro-4-oxo-chromen-2-yl)-4,5-dimethoxy-phenoxy]ethoxy]cyclobutanecarboxylic acid]
[1]
  IC50: 6.31 µM
[2]
  Clearance of Human microsome: 6.15 mL/min/kg

## O=c1cc(-c2cc3c(cc2OCCO[C@H]2C[C@@H](C(=O)O)C2)OCCO3)oc2c(Cl)cccc12 [Example C074, Cis-3-[2-[[7-(8-chloro-4-oxo-chromen-2-yl)-2,3-dihydro-1,4-benzodioxin-6-yl]oxy]ethoxy]cyclobutanecarboxylic acid]
[1]
  IC50: 7.28 µM
[2]
  Clearance of Human microsome: 6.15 mL/min/kg

## Cc1cc(OCCO[C@H]2C[C@@H](C(=O)O)C2)c(-c2cc(=O)c3cccc(Cl)c3o2)cc1C(F)F [Example C075, Cis-3-[2-[2-(8-chloro-4-oxo-chromen-2-yl)-4-(difluoromethyl)-5-methyl-phenoxy]ethoxy]cyclobutanecarboxylic acid]
[1]
  IC50: 10.9 µM
[2]
  Clearance of Human microsome: 6.15 mL/min/kg

## COc1cc(-c2cc(=O)c3cccc(Cl)c3o2)c(OCCO[C@H]2C[C@@H](C(=O)O)C2)cc1O [Example C076, Cis-3-[2-[2-(8-chloro-4-oxo-chromen-2-yl)-5-hydroxy-4-methoxy-phenoxy]ethoxy]cyclobutanecarboxylic acid]
[1]
  IC50: 0.502 µM
[2]
  Clearance of Human microsome: 6.15 mL/min/kg

## COc1cc(-c2cc(=O)c3cccc(Cl)c3o2)c(OCCO[C@H]2C[C@@H](C(=O)O)C2)cc1OCC1CC1 [Example C079, Cis-3-[2-[2-(8-chloro-4-oxo-chromen-2-yl)-5-(cyclopropylmethoxy)-4-methoxy-phenoxy]ethoxy]cyclobutanecarboxylic acid]
[1]
  IC50: 5.5 µM
[2]
  Clearance of Human microsome: 6.15 mL/min/kg

## COc1cc(OCCO[C@H]2C[C@@H](C(=O)O)C2)c(-c2cc(=O)c3cccc(Cl)c3o2)cc1O [Example C083, cis-3-[2-[2-(8-chloro-4-oxo-chromen-2-yl)-4-hydroxy-5-methoxy-phenoxy]ethoxy]cyclobutanecarboxylic acid]
[1]
  IC50: 4.59 µM
[2]
  Clearance of Human microsome: 6.15 mL/min/kg

## O=c1cc(-c2cc(OC(F)F)c(OC(F)F)cc2OCCO[C@H]2C[C@@H](C(=O)O)C2)oc2c(Cl)cccc12 [Example C087, cis-3-[2-[2-(8-chloro-4-oxo-chromen-2-yl)-4,5-bis(difluoromethoxy)phenoxy]ethoxy]cyclobutanecarboxylic acid]
[1]
  IC50: 6.35 µM
[2]
  Clearance of Human microsome: 6.15 mL/min/kg

## CCOc1cc(OCCO[C@H]2C[C@@H](C(=O)O)C2)c(-c2cc(=O)c3cccc(Cl)c3o2)cc1OCC [Example C088, Cis-3-[2-[2-(8-chloro-4-oxo-chromen-2-yl)-4,5-diethoxy-phenoxy]ethoxy]cyclobutanecarboxylic acid]
[1]
  IC50: 10.3 µM
[2]
  Clearance of Human microsome: 6.15 mL/min/kg

## COc1cc(OCCO[C@H]2C[C@@H](C(=O)O)C2)c(-c2cc(=O)c3cccc(Cl)c3o2)cc1OC(F)(F)F [Example C089, Cis-3-[2-[2-(8-chloro-4-oxo-chromen-2-yl)-5-methoxy-4-(trifluoromethoxy)phenoxy]ethoxy]cyclobutanecarboxylic acid]
[1]
  IC50: 3.78 µM
[2]
  Clearance of Human microsome: 6.15 mL/min/kg

## CC1(C)C(=O)Nc2cc(-c3cc(=O)c4cccc(Cl)c4o3)c(OCCO[C@H]3C[C@@H](C(=O)O)C3)cc21 [Example C092, cis-3-[2-[6-(8-chloro-4-oxo-chromen-2-yl)-3,3-dimethyl-2-oxo-indolin-5-yl]oxyethoxy]cyclobutanecarboxylic acid]
[1]
  IC50: 11.2 µM
[2]
  Clearance of Human microsome: 6.15 mL/min/kg

## CN1C(=O)C(C)(C)c2cc(OCCO[C@H]3C[C@@H](C(=O)O)C3)c(-c3cc(=O)c4cccc(Cl)c4o3)cc21 [Example C093, Cis-3-[2-[6-(8-chloro-4-oxo-chromen-2-yl)-1,3,3-trimethyl-2-oxo-indolin-5-yl]oxyethoxy]cyclobutanecarboxylic acid]
[1]
  IC50: 7.79 µM
[2]
  Clearance of Human microsome: 6.15 mL/min/kg

## O=c1cc(-c2ccccc2OCCO[C@H]2C[C@@H](C(=O)O)C2)oc2c(Cl)ccc(C(F)(F)F)c12 [Example C094, cis-3-[2-[2-[8-chloro-4-oxo-5-(trifluoromethyl)chromen-2-yl]phenoxy]ethoxy]cyclobutanecarboxylic acid]
[1]
  IC50: 0.04 µM
[2]
  Clearance of Human microsome: 6.15 mL/min/kg

## CCOc1ccc(-c2cc(=O)c3c(C(F)(F)F)ccc(Cl)c3o2)c(OCCO[C@H]2C[C@@H](C(=O)O)C2)c1 [Example C095, cis-3-[2-[2-[8-chloro-4-oxo-5-(trifluoromethyl)chromen-2-yl]-5-ethoxy-phenoxy]ethoxy]cyclobutanecarboxylic acid]
[1]
  IC50: 3.29 µM
[2]
  Clearance of Human microsome: 9.62 mL/min/kg

## COc1cc(OCCO[C@H]2C[C@@H](C(=O)O)C2)c(-c2cc(=O)c3c(O)ccc(Cl)c3o2)cc1OC [Example C098, cis-3-[2-[2-(8-chloro-5-hydroxy-4-oxo-chromen-2-yl)-4,5-dimethoxy-phenoxy]ethoxy]cyclobutanecarboxylic acid]
[1]
  IC50: 8.56 µM
[2]
  Clearance of Human microsome: 6.15 mL/min/kg

## O=c1cc(-c2ccc(C(F)(F)F)cc2OCCO[C@H]2C[C@@H](C(=O)O)C2)oc2c(Cl)ccc(O)c12 [Example C099, cis-3-[2-[2-(8-chloro-5-hydroxy-4-oxo-chromen-2-yl)-5-(trifluoromethyl)phenoxy]ethoxy]cyclobutanecarboxylic acid]
[1]
  IC50: 15.7 µM
[2]
  Clearance of Human microsome: 7.11 mL/min/kg

## O=C(O)COCCCOc1cc(C(F)(F)F)ccc1-c1cc(=O)c2c(O)ccc(Cl)c2o1 [Example C100, 2-[3-[2-(8-chloro-5-hydroxy-4-oxo-chromen-2-yl)-5-(trifluoromethyl)phenoxy]propoxy]acetic acid]
[1]
  IC50: 0.691 µM
[2]
  Clearance of Human microsome: 6.15 mL/min/kg

## COc1c(-c2ccc(Br)cc2OCCO[C@H]2C[C@@H](C(=O)O)C2)oc2c(Cl)cccc2c1=O [Example C101, Cis-3-[2-[5-bromo-2-(8-chloro-3-methoxy-4-oxo-chromen-2-yl)phenoxy]ethoxy]cyclobutanecarboxylic acid]
[1]
  IC50: 2.38 µM
[2]
  Clearance of Human microsome: 6.15 mL/min/kg

## O=c1cc(-c2cc3c(cc2OCCO[C@H]2C[C@@H](C(=O)O)C2)OC(F)(F)O3)oc2c(Cl)cccc12 [Example C102, Cis-3-[2-[[6-(8-chloro-4-oxo-chromen-2-yl)-2,2-difluoro-1,3-benzodioxol-5-yl]oxy]ethoxy]cyclobutanecarboxylic acid]
[1]
  IC50: 7 µM
[2]
  Clearance of Human microsome: 7.11 mL/min/kg

## O=C(O)C1CCC(OCCCOc2cc(C(F)(F)F)ccc2-c2cc(=O)c3cccc(Cl)c3o2)C1 (stereo not shown) [Example C104, 3-[3-[2-(8-chloro-4-oxo-chromen-2-yl)-5-(trifluoromethyl)phenoxy]propoxy]cyclopentanecarboxylic acid]
[1]
  IC50: 4.46 µM
[2]
  Clearance of Human microsome: 6.15 mL/min/kg
